Laboratory results: patent US20160345855A1, “METHODS OF TREATING BRAIN DISORDERS OR IDENTIFYING BIOMARKERS RELATED THERETO” (NORTHWESTERN UNIVERSITY, priority 2013, published 2016)
“Also recorded” adds a separate entry of the source. Peptide text beside a SMILES is read from it.

Key:
NMDAR [1] = conditions: cited from earlier work; for side effects: human clinical studies; for Hamilton Depression Rating Score: patients suffering with refractory depression
healthy young adults [2] = test: fMRI (BOLD) during item category association task, Example 1; type: in vivo, humans; conditions: IV-injection of 5 mg
Protocol: GLYX-13 was used to investigate whether this compound changed functional activation in hippocampal and related learning regions healthy young adults.
Twenty-four healthy individuals underwent functional magnetic resonance imaging (fMRI) after randomization to IV-injection of 5 mg of GLYX-13 (n=12) or placebo (n=12). Groups were matched on demographic factors, estimated IQ, and dose volume. While undergoing scanning, subjects performed an item category association task in which they learned over repeated cycles which of two categories a series of numbers were assigned. Change in blood-oxygen level dependent (BOLD) activity was measured during correctly performed trials, and differences in activation between groups were compared across learning cycles.

healthy young adults [3] = test: fMRI (BOLD) during item category association task, Example 2 (randomized, single-blind, parallel group); type: in vivo, humans; conditions: single IV 5 mg/kg
Excerpt: We investigated whether a single IV administration of GLYX-13 compared to placebo changed functional activation among healthy young adults performing a learning and memory task while undergoing fMRI.
The inclusion criteria for adult subjects participating in the study were as follows (i) 18-40 years of age; (ii) estimated IQ within what is considered to be the normal range (80-120); and (iii) no personal medical, neurologic, or psychiatric history, or reported history of psychiatric illness among first degree relatives.
After initial (Visit 1), patients were randomized to either single IV administration of GLYX-13 (5 mg/kg) or placebo on subsequent visit (Visit 2). fMRI studies started within 20 minutes post-infusion. Subjects returned approximately one week after Visit 2 to complete behavioral tasks in scanner and assess any adverse effects.
Item Category Association Task (See, e.g., Onur O A, Schlaepfer T E, Kukolja J, Bauer A, Jeung H, Patin A, Otte D-M, Shah N J, Maier W, Kendrick K M, Fink G R, Hurleman R (2010).
The N-methyl-D-aspartate receptor co-agonist D-Cycloserine facilitates declarative learning and hippocampal activity in humans. Biol. Psychiatry, 67, 1205). Subjects were asked to learn arbitrary group membership (A or B) of 3-digit numbers. Visual feedback was provided immediately following choice (button press) to indicate correct item category association. There were eight category memberships to be learned, which were presented over eight cycles (i.e., 7 repetitions) for a total of 64 trials per run; three sets of learning runs (each with different 3-digit number sets. See FIG. 3.
3T TIM Trio system (Siemens Medical Systems) with 32 channel coil. […]

NMDAR [4] = conditions: in vivo; cited from earlier work

Compound | side effects (NMDAR [1]) | Hamilton Depression Rating Score (NMDAR [1]) | regions in which Placebo demonstrated greater activation compared to GLYX-13 (healthy young adults [2]) | BOLD activation over learning cycles compared to Placebo (healthy young adults [2]; n=12 per group, correctly performed trials, hippocampus, parahippocampal gyrus, amygdala, superior temporal, middle frontal, inferior frontal gyri) | task accuracy over successive cycles (healthy young adults [2]; both groups (GLYX-13 and placebo)) | number of identified regions with significant group by cycle interaction effects on extracted mean % signal change (healthy young adults [3]; FIGS. 7A-7F) | behavioral task performance (learning effect across cycle) (healthy young adults [3]; compared with Placebo, FIG. 5) | BOLD activation / extracted mean % signal change vs. Placebo (healthy young adults [3]; correct trials, FIGS. 7A-7F, 5 mg/kg) | antidepressant activity (NMDAR [4]) | nootropic, neuroprotective, antinociceptive and cognitive activity (NMDAR [4]) | psychotomimetic side effects (NMDAR [4])
C[C@@H]([C@@H](O)c1ccc(O)cc1)N1CCC(O)(c2ccccc2)CC1 [CPC-101.606] | severe | significant reductions |  |  |  |  |  |  |  |  | 
C[C@@H](O)[C@H](N)C(=O)N1CCC[C@H]1C(=O)N1CCC[C@H]1C(=O)N[C@H](C(N)=O)[C@@H](C)O [GLYX-13, L-threonyl-L-prolyl-L-prolyl-L-threonine amide] (H-TPPT-NH2) |  |  | no regions | enhanced activation over learning cycles in several learning and memory regions | increased task accuracy over successive cycles | six | robust and comparable learning effect across cycle | enhanced activation; also recorded: enhanced BOLD signal change | rapid-acting, robust, and sustained antidepressant activity | exhibits nootropic, neuroprotective and antinociceptive activity, and enhances learning, memory and cognition in vivo | lack the pyschotomimetic side effects
CNC1(c2ccccc2Cl)CCCCC1=O (stereo not shown) [ketamine] | severe | significant reductions |  |  |  |  |  |  |  |  | 
